Legend:
[1] = tested on: FLT3-ITD; assay: KINOMEscan binding assay
Experimental: Binding to FLT3-ITD was determined using the KINOMEscan^TM assay (Eurofins DiscoverX Corporation, San Diego, CA, USA)
Kinase-tagged T7 phage strains were prepared in an E. coli host derived from the BL21 strain. E. coli were grown to log-phase and infected with T7 phage and incubated with shaking at 32 °C until lysis. The lysates were centrifuged and filtered to remove cell debris. The remaining kinases were produced in HEK-293 cells and subsequently tagged with DNA for qPCR detection. […] The liganded beads were blocked with excess biotin and washed with blocking buffer (SeaBlock (Pierce), 1% BSA, 0.05% Tween 20, 1 mM DTT) to remove unbound ligand and to reduce non-specific binding. […] The compounds were then diluted directly into the assays such that the final concentration of DMSO was 0.9%. All reactions performed in polypropylene 384-well plate. Each was a final volume of 0.02 mL. […] The kinase concentration in the eluates was measured by qPCR.

[2] = Plasma stability; type: in vitro ADME; settings: for remaining at 0 h, 10 µM / remaining at 10 min, 10 µM / remaining at 0.5 h, 10 µM / remaining at 1 h, 10 µM / remaining at 2 h, 10 µM / remaining at 6 h, 10 µM: pooled human plasma, 37 °C; for remaining at 0 h, 10 µM: 0 min, read-out: 0 min—Compound Remaining %; for remaining at 10 min, 10 µM: read-out: 10 min—Compound Remaining %; for remaining at 0.5 h, 10 µM: 30 min, read-out: 30 min—Compound Remaining %; for remaining at 1 h, 10 µM: 60 min, read-out: 60 min—Compound Remaining %; for remaining at 2 h, 10 µM: 120 min, read-out: 120 min—Compound Remaining %; for remaining at 6 h, 10 µM: 360 min, read-out: 360 min—Compound Remaining %; for plasma stability: human plasma, 6 h
Experimental: Another aspect we tested for selected PROTACs, and the reference inhibitor is the stability in human plasma. PROTACs MA190 and MA191 and their parent inhibitor MA68 (10 μM, final DMSO concentration 1%) were incubated with 100 μL pooled human plasma at 37 °C. The remaining amount of the incubated compound was tested for 6 h using a HPLC method. […] The further detailed biological characterization of MA191 and the successful in vivo testing can be found in a study submitted in parallel.
To determine plasma stability, 10 μM of the given compound was incubated with 100 μL human pooled plasma for 5, 10, 30, 60, 120 and 360 min at 37 °C. The reactions were stopped by adding 300 μL of acetonitrile with subsequent plasma proteins sedimentation. The samples were subjected to ultra-centrifugation (5 min, 10,000 RPM/g) using modified PES 30K low protein binding centrifugal filter. The filtrate was then analyzed using HPLC to determine the available concentration of the compounds and also to determine and quantify potential degradation products. As HPLC system a LiChrosorb® RP-18 (5 μm) 100–4.6 column from the manufacturer Merck, two LC-10AD pumps, a SPD-M10A VP PDA detector, and a SIL HT auto-sampler were used (all from the manufacturer Shimadzu, Kyoto, Japan). As mobile phase a gradient with […] composed of methanol/water/trifluoroacetic acid at a flow rate of 1 mL/min. UV absorbance was measured at 254 nm was used.

[3] = tested on: HEK293 cells; assay: Cytotoxicity in HEK293 cells (Alamar Blue); settings: 50 µM
[4] = Non-enzymatic stability under cellular assay conditions (HPLC); type: physicochemical; settings: compound remaining, assay medium DMEM, 37 °C
Experimental: An important aspect in the development of PROTACs is testing chemical stability. On the one hand, we tested all PROTACs produced for their stability under cellular assay conditions. For this purpose, 10 µM solutions of the PROTACs and reference inhibitor were incubated for 72 h at 37 °C with the assay medium DMEM. The remaining amount of the compounds was determined by HPLC after 6, 12, 24, 48 and 72 h. The results of the stability studies are shown in Table S2 (Supplementary Information).
The developed compounds were diluted in the assay media consisting of a mixture of DMEM (50%), DMSO (10%) and acetonitrile (40%) at pH 7.4 and incubated at 37 °C for 72 h. The quantity of the compounds was measured after 6, 12, 24, 48, and 72 h by HPLC using an XTerra RP18 column ([…], 3.9 mm × 100 mm) from the manufacturer Waters (Milford, MA, USA) and two LC-10AD pumps, an SPD-M10AVP PDA detector, and an SIL-HT autosampler, all from the manufacturer Shimadzu (Kyoto, Japan).

[5] = in vitro; settings: human, HEK293 cells
[6] = in vitro; settings: CD-1, mouse, liver microsomes, pH 7.4
[7] = tested on: FLT3-ITD; assay: FLT3-ITD degradation, immunoblot in MOLM-13 cells; type: cell-based, human; settings: 50 nM, 24 h
Excerpt: To verify that MA190 and MA191 trigger the depletion of FLT3-ITD and a breakdown of its downstream signaling in both MV4-11 and MOLM-13 cells, we used immunoblotting. Furthermore, we evaluated if the elimination of FLT3-ITD is inherent to the PROTAC activities of MA190 and MA191, or due to their kinase inhibitor moieties using MA68. […] The loss of FLT3-ITD was linked to a reduction of STAT5 and AKT, their phosphorylation, and the auto-phosphorylation of FLT3-ITD in both AML cell systems (Figure 4f,g).
Figure 4 Biological and biochemical characterization of the FLT3 PROTACs. (a) MV4-11 cells were incubated for 24 h with 50 nM of the indicated compounds. Immunoblotting was performed for the indicated proteins and their phosphorylation (p-) or cleavage (cl.; indicated by arrows); β-actin was used to ensure equal sample loading. (b) MV4-11 cells were treated with the indicated agents and analyzed for early and late apoptosis by flow cytometry. (c) Same as in (b) but treatment for 72 h. (d) MOLM-13 cells were treated with the indicated agents and analyzed for early and late apoptosis by flow cytometry. […] Immunoblots show the expression of the indicated proteins and their phosphorylation (p-); β-actin was used to ensure equal sample loading. All immunoblots show data from at least two independent repetitions and flow cytometry analyses were conducted thrice independently; * […], ** p < 0.01, *** p < 0.001, **** p < 0.0001.

Row | % FLT3-ITD Binding at 1 µM [1] [%] | remaining at 0 h, 10 µM [2] [%] | remaining at 10 min, 10 µM [2] [%] | remaining at 0.5 h, 10 µM [2] [%] | remaining at 1 h, 10 µM [2] [%] | remaining at 2 h, 10 µM [2] [%] | remaining at 6 h, 10 µM [2] [%] | 0 h - % [4] [%] | 6 h- % [4] [%] | 12 h- % [4] [%] | 24 h- % [4] [%] | 48 h- % [4] [%] | 72 h- % [4] [%] | remaining at 0 h, 25 µM [6] [%] | remaining at 10 min, 25 µM [6] [%] | remaining at 20 min, 25 µM [6] [%] | remaining at 0.5 h, 25 µM [6] [%] | remaining at 1 h, 25 µM [6] [%] | Structure (SMILES) | cytotoxic effects [3] | viability at 24 h, 50 µM [5] [%] | also measured
1 | 91 ± 2 | 100 | 94.9 ± 2.5 | 96.1 ± 1.7 | 95.2 ± 2.8 | 93.2 ± 6.7 | 95.4 ± 4.3 | 100 | 101.1 | 101.4 | 103.5 | 104.2 | 104.9 | 100 | 66 | 53 | 37 | 29 | Cc1ncsc1-c1ccc([C@H](C)NC(=O)[C@@H]2C[C@@H](O)CN2C(=O)[C@@H](NC(=O)CCOCCOCCOCCNC(=O)c2cc(Oc3ccc(NC(=O)Nc4cc(C(C)(C)C)on4)cc3)ccn2)C(C)(C)C)cc1 [MA49, reference compound] | showed cytotoxic effects | 2.9 ± 0.3 | remaining at 2 h, 25 µM [6]: 15%
2 | – | 100 | 92.9 ± 0.2 | 94.2 ± 1.2 | 91.9 ± 3.1 | 93.6 ± 3.2 | 88.9 ± 3.2 | 100 | 101.0 | 102.4 | 102.1 | 105.7 | 105.2 | – | – | – | – | – | CNC(=O)c1cc(Oc2ccc(NC(=O)Nc3cc(C(C)(C)C)on3)cc2)ccn1 [MA68, reference compound] | showed cytotoxic effects | 11.5 ± 2.2 | plasma stability [2]: high plasma stability; FLT3-ITD degradation [7]: but not their underlying kinase inhibitor MA68, eliminate FLT3-ITD
3 | 71 ± 1 | 100 | 94.1 ± 4.7 | 89.5 ± 1.8 | 88.3 ± 0.2 | 86 ± 2 | 86.2 ± 2.4 | 100 | 102.6 | 103.2 | 104.4 | 105.4 | 107.4 | 100 | 92 | 90 | 95 | 96 | Cc1ncsc1-c1ccc([C@H](C)NC(=O)[C@@H]2C[C@@H](O)CN2C(=O)[C@@H](NC(=O)[C@H]2CC[C@H](C(=O)N3CCC(CCNC(=O)c4cc(Oc5ccc(NC(=O)Nc6cc(C(C)(C)C)on6)cc5)ccn4)CC3)CC2)C(C)(C)C)cc1 [MA190, 4-(4-(3-(5-(tert-Butyl)isoxazol-3-yl)ureido)phenoxy)-N-(2-(1-(trans-4-(((S)-1-((2S,4R)-4-hydroxy-2-(((S)-1-(4-(4-methylthiazol-5-yl)phenyl)ethyl)carbamoyl)pyrrolidin-1-yl)-3,3-dimethyl-1-oxobutan-2-yl)carbamoyl)cyclohexanecarbonyl)piperidin-4-yl)ethyl)picolinamide] | no cytotoxic effects | 99.1 ± 3.1 | plasma stability [2]: high plasma stability; FLT3-ITD degradation [7]: eliminate FLT3-ITD; remaining at 2 h, 25 µM [6]: 91%
4 | 88 ± 2 | 100 | 95.9 ± 9.4 | 93.3 ± 4.2 | 92.6 ± 5.7 | 94.9 ± 1.8 | 93.3 ± 0.7 | 100 | 100.3 | 100.0 | 99.7 | 100.3 | 100.3 | 100 | 99 | 96 | 94 | 93 | Cc1ncsc1-c1ccc([C@H](C)NC(=O)[C@@H]2C[C@@H](O)CN2C(=O)[C@@H](NC(=O)[C@H]2CC[C@H](C(=O)N3CCN(CCNC(=O)c4cc(Oc5ccc(NC(=O)Nc6cc(C(C)(C)C)on6)cc5)ccn4)CC3)CC2)C(C)(C)C)cc1 [MA191, 4-(4-(3-(5-(tert-Butyl)isoxazol-3-yl)ureido)phenoxy)-N-(2-(4-(trans-4-(((S)-1-((2S,4R)-4-hydroxy-2-(((S)-1-(4-(4-methylthiazol-5-yl)phenyl)ethyl)carbamoyl)pyrrolidin-1-yl)-3,3-dimethyl-1-oxobutan-2-yl)carbamoyl)cyclohexanecarbonyl)piperazin-1-yl)ethyl)picolinamide] | no cytotoxic effects | 86.9 ± 5.8 | plasma stability [2]: high plasma stability; FLT3-ITD degradation [7]: eliminate FLT3-ITD; remaining at 2 h, 25 µM [6]: 91%

Reference: publication PMC13210772, “Dual FLT3/MAPK14 Proteolysis-Targeting Chimera (PROTAC) Induces Potent Acute Myeloid Leukemia Cell Death” (Pharmaceuticals, 2026)
